Read-outs that look alike come from different tables or passages of the source.
Tests used:
[1] = Reducing power on the Somogyi-Nelson's method; type: physicochemical
[2] = Saturation concentration of cyclotetrasaccharide in water; type: physicochemical; conditions: for Saturation concentration of cyclotetrasaccharide: water
Text: The resulting each saturated solution of cyclotetrasaccharide was membrane filtered to remove undissolved cyclotetrasaccharide, and each filtrate was then examined for moisture content by the drying loss method and determined for a saturation concentration of cyclotetrasaccharide at respective temperatures.

pH stability = type: physicochemical; conditions: 4% (w/v), 100° C., 24 hours; for Purity: HPLC
Experimental: Eight milliliters of each solution was placed in a glass test tube, followed by sealing the test tube and heating the solution at 100° C. for 24 hours. After cooling under atmospheric conditions, each solution was measured for coloration degree and determined for purity on HPLC. The coloration degree was evaluated based on the absorbance in a cell with a 1-cm light pass at a wavelength of 480 nm.

Inclusion action = type: physicochemical
Experimental: To 100 g of the aqueous solution was added 2 g of methanol, 3 g of ethanol, or 4.6 g of acetic acid to be included by the cyclotetrasaccharide. Thereafter, each of the resulting solutions was filtered to remove non-inclusion products, and the filtrate was lyophilized. As a control, similar inclusion products were prepared by using “ISOELITE™ P”, a branched cyclodextrin commercialized by Maruha K.K., Tokyo, Japan, known to have inclusion ability.
To measure the amount of the inclusion products in the resulting lyophilized powders, one gram of each powder was dissolved in five milliliters water and extracted after admixing with five milliliters of diethylether. The extraction was repeated, and the resulting extracts were pooled and quantified on gas chromatography.

[3] = system: internal content of rat cecum; assay: Fermentation test; type: in vitro ADME
Experimental: The internal content of rat cecum was collected by anesthetizing a Wister male rat with ether, allowing the rat to die, collecting the internal content under anaerobic conditions, and suspending the resultant with 4-fold volumes of a 0.1 M aqueous solution of sodium bicarbonate. Cyclotetrasaccharide was added in an amount of about 7% by weight to the weight of the internal contents of rat cecum, and the contents of cyclotetrasaccharide, which still remained just after and 12 hours after the addition of the internal contents, were quantified on gas chromatography.

[4] = system: Bifidobacterium adolescentis JCM 1275 strain; assay: Assimilation test; type: cell-based; conditions: PYF medium with 0.5% saccharide, 37° C., four days, anaerobic
[5] = system: Clostridium perfringens JCM 3816 strain; type: cell-based; conditions: PYF medium with 0.5% saccharide, 37° C., four days, anaerobic
[6] = system: Escherichia coli IFO 3301 strain; assay: Assimilation test; type: cell-based; conditions: PYF medium with 0.5% saccharide, 37° C., four days, anaerobic
[7] = system: Lactobacillus acidophilus JCM 1132 strain; assay: Assimilation test; type: cell-based; conditions: PYF medium with 0.5% saccharide, 37° C., four days, anaerobic
mice = assay: Acute toxicity test; type: in vivo, mouse; conditions: oral
Text: Based on this, the LD50 of cyclotetrasaccharide was at least 50 g/kg mouse body weight.

salivary amylase [8] = molecular target: T1, salivary amylase (Homo sapiens, UniProt P0DUB6)
T1 sequence (P0DUB6 16-511): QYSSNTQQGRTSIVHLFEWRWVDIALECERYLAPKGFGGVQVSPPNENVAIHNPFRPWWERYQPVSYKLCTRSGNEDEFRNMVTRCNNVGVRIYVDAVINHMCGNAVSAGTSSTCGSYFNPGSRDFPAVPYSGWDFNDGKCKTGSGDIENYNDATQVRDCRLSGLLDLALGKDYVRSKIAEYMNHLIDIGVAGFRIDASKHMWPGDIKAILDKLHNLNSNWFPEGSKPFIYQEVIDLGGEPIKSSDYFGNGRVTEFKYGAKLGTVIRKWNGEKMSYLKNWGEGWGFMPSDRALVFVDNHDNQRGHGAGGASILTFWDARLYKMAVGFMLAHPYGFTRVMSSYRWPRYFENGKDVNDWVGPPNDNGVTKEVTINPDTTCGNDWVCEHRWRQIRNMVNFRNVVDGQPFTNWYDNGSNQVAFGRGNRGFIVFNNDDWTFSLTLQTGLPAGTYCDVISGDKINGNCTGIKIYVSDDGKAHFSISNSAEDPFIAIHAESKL

salivary amylase [9] = molecular target: T1, salivary amylase; assay: Digestion test in vitro

SMILES: OCC1OC2OCC3O[C@H](O[C@H]4C(O)C(CO)OC(OCC5O[C@H](O[C@@H](C1O)C2O)C(O)C(O)[C@@H]5O)C4O)C(O)C(O)[C@@H]3O (stereo partly drawn) [Cyclotetrasaccharide, cyclo{→6)-α-D-glucopyranosyl-(1→3)-α-D-glucopyranosyl-(1→6)-α-D-glucopyranosyl-(1→3)-α-D-glucopyranosyl-(1→}]
- Reducing power [1]: below a detectable level
- Weight of cyclotetrasaccharide dissolved in 100 g water ([2]; 10° C.): 43.5 g
- Weight of cyclotetrasaccharide dissolved in 100 g water ([2]; 30° C.): 51.9 g
- Weight of cyclotetrasaccharide dissolved in 100 g water ([2]; 50° C.): 74.2 g
- Weight of cyclotetrasaccharide dissolved in 100 g water ([2]; 70° C.): 112.7 g
- Weight of cyclotetrasaccharide dissolved in 100 g water ([2]; 90° C.): 239.0 g
- Saturation concentration of cyclotetrasaccharide ([2]; 10° C.): 30.3%
- Saturation concentration of cyclotetrasaccharide ([2]; 30° C.): 34.2%
- Saturation concentration of cyclotetrasaccharide ([2]; 50° C.): 42.6%
- Saturation concentration of cyclotetrasaccharide ([2]; 70° C.): 53.0%
- Saturation concentration of cyclotetrasaccharide ([2]; 90° C.): 70.5%
- Coloration degree (A480 nm) (pH stability; pH 2.0 (Acetate buffer)): 0.00
- Purity (pH stability; pH 2.0 (Acetate buffer)): 93%
- Coloration degree (A480 nm) (pH stability; pH 3.0 (Acetate buffer)): 0.00
- Purity (pH stability; pH 3.0 (Acetate buffer)): 100%
- Coloration degree (A480 nm) (pH stability; pH 4.0 (Acetate buffer)): 0.00
- Purity (pH stability; pH 4.0 (Acetate buffer)): 100%
- Coloration degree (A480 nm) (pH stability; pH 5.0 (Acetate buffer)): 0.00
- Purity (pH stability; pH 5.0 (Acetate buffer)): 100%
- Coloration degree (A480 nm) (pH stability; pH 6.0 (Tris-HCl buffer)): 0.00
- Purity (pH stability; pH 6.0 (Tris-HCl buffer)): 100%
- Coloration degree (A480 nm) (pH stability; pH 7.0 (Tris-HCl buffer)): 0.00
- Purity (pH stability; pH 7.0 (Tris-HCl buffer)): 100%
- Coloration degree (A480 nm) (pH stability; pH 8.0 (Tris-HCl buffer)): 0.00
- Purity (pH stability; pH 8.0 (Tris-HCl buffer)): 100%
- Coloration degree (A480 nm) (pH stability; pH 9.0 (Ammonium buffer)): 0.00
- Purity (pH stability; pH 9.0 (Ammonium buffer)): 100%
- Coloration degree (A480 nm) (pH stability; pH 10.0 (Ammonium buffer)): 0.00
- Purity (pH stability; pH 10.0 (Ammonium buffer)): 100%
- Inclusion ability relative to the branched cyclodextrin, by weight (Inclusion action; higher than ISOELITE P): about 2 folds
- Inclusion amount (Inclusion action; inclusion product Acetic acid): 67.74 mg/g lyophilized powder
- Inclusion amount (Inclusion action; inclusion product Ethanol): 17.26 mg/g lyophilized powder
- Inclusion amount (Inclusion action; inclusion product Methanol): 6.71 mg/g lyophilized powder
- Cyclotetrasaccharide remained without being fermented ([3]; 12 hours): 93%
- Content of cyclotetrasaccharide remaining ([3]; 12 hours after the addition): 63.0 mg per one gram of the internal contents of rat cecum
- Content of cyclotetrasaccharide remaining ([3]; just after the addition): 68.0 mg per one gram of the internal contents of rat cecum
- Assimilability [4]: − (negative (−) when the post culture had a pH of 6.0 or higher)
- Assimilability [5]: − (negative (−) when the post culture had a pH of 6.0 or higher)
- Assimilability [6]: − (negative (−) when the post culture had a pH of 6.0 or higher)
- Assimilability [7]: − (negative (−) when the post culture had a pH of 6.0 or higher)
- Death at highest possible dose (mice): did not induce death of mouse
- LD50 (mice): at least 50 g/kg mouse body weight
- Decomposition percentage by digestive enzyme (salivary amylase [8]): 0.0%

SMILES: OC[C@@H](O)[C@@H](O[C@H]1O[C@H](CO)[C@@H](O)[C@H](O)[C@H]1O)[C@H](O)[C@@H](O)CO [Maltitol, maltitol]
- Decomposition percentage by digestive enzyme (salivary amylase [9]): 0.0%

From patent US7192746B2, “α-Isomaltosyltransferase, process for producing the same and use thereof” (Kabushiki Kaisha Hayashibara Seibutsu Kagaku Kenkyujo, priority 2000, dated 2007)
